Data taken from the NIST ThermoML archive (doi:10.1016/j.tca.2014.10.001).

Test: mn = molality of the nth substance listed, in mol/kg
Settings: 100 kPa, Liquid; for electrical conductivity: Alternating current cell with electrodes; for speed of sound: Frequency=3 MHz, Sing-around technique in a fixed-path interferometer; for mass density: Vibrating tube method

CCCCn1cc[n+](C)c1C.F[B-](F)(F)F [1-butyl-2,3-dimethylimidazolium tetrafluoroborate] + O
Settings | electrical conductivity [S/m] | mass density [kg/m3] | speed of sound [m/s]
288.15 K, m1 = 0.03 | 0.229 | – | –
288.15 K, m1 = 0.0308 | – | 1000.29 | 1471.8
288.15 K, m1 = 0.0312 | 0.236 | – | –
288.15 K, m1 = 0.0324 | 0.245 | – | –
288.15 K, m1 = 0.0338 | 0.256 | – | –
288.15 K, m1 = 0.0353 | 0.265 | – | –
288.15 K, m1 = 0.0369 | 0.276 | – | –
288.15 K, m1 = 0.0386 | 0.288 | – | –
288.15 K, m1 = 0.0406 | 0.303 | – | –
288.15 K, m1 = 0.04107 | – | 1000.68 | 1474.2
288.15 K, m1 = 0.0427 | 0.319 | – | –
288.15 K, m1 = 0.0451 | 0.336 | – | –
288.15 K, m1 = 0.0477 | 0.355 | – | –
288.15 K, m1 = 0.0507 | 0.375 | – | –
288.15 K, m1 = 0.05137 | – | 1001.08 | 1476.5
288.15 K, m1 = 0.0541 | 0.399 | – | –
288.15 K, m1 = 0.058 | 0.427 | – | –
288.15 K, m1 = 0.06162 | – | 1001.46 | 1478.6
288.15 K, m1 = 0.0624 | 0.457 | – | –
288.15 K, m1 = 0.0677 | 0.491 | – | –
288.15 K, m1 = 0.07 | 0.508 | – | –
288.15 K, m1 = 0.0725 | 0.526 | – | –
288.15 K, m1 = 0.0752 | 0.542 | – | –
288.15 K, m1 = 0.0781 | 0.564 | – | –
288.15 K, m1 = 0.0812 | 0.586 | – | –
288.15 K, m1 = 0.08198 | – | 1002.23 | 1482.5
288.15 K, m1 = 0.0846 | 0.608 | – | –
288.15 K, m1 = 0.0882 | 0.634 | – | –
288.15 K, m1 = 0.0922 | 0.661 | – | –
288.15 K, m1 = 0.0966 | 0.688 | – | –
288.15 K, m1 = 0.1014 | 0.713 | – | –
288.15 K, m1 = 0.1024 | – | 1002.99 | 1485.2
288.15 K, m1 = 0.1068 | 0.745 | – | –
288.15 K, m1 = 0.1127 | 0.772 | – | –
288.15 K, m1 = 0.1193 | 0.806 | – | –
288.15 K, m1 = 0.1231 | – | 1003.74 | 1486.4
288.15 K, m1 = 0.1267 | 0.846 | – | –
288.15 K, m1 = 0.1352 | 0.891 | – | –
288.15 K, m1 = 0.1436 | – | 1004.47 | 1487.1
288.15 K, m1 = 0.1448 | 0.941 | – | –
288.15 K, m1 = 0.1559 | 0.997 | – | –
288.15 K, m1 = 0.164 | – | 1005.19 | 1487.7
288.15 K, m1 = 0.1688 | 1.06 | – | –
288.15 K, m1 = 0.1841 | 1.14 | – | –
288.15 K, m1 = 0.1846 | – | 1005.91 | 1488.2
288.15 K, m1 = 0.2025 | 1.23 | – | –
288.15 K, m1 = 0.205 | – | 1006.62 | 1488.7
298.15 K, m1 = 0.0306 | 0.247 | – | –
298.15 K, m1 = 0.0308 | – | 998.165 | 1500.7
298.15 K, m1 = 0.031 | 0.249 | – | –
298.15 K, m1 = 0.0323 | 0.259 | – | –
298.15 K, m1 = 0.0337 | 0.27 | – | –
298.15 K, m1 = 0.0352 | 0.28 | – | –
298.15 K, m1 = 0.0368 | 0.291 | – | –
298.15 K, m1 = 0.0387 | 0.305 | – | –
298.15 K, m1 = 0.0407 | 0.319 | – | –
298.15 K, m1 = 0.04107 | – | 998.537 | 1502.3
298.15 K, m1 = 0.0429 | 0.334 | – | –
298.15 K, m1 = 0.0454 | 0.351 | – | –
298.15 K, m1 = 0.0472 | 0.366 | – | –
298.15 K, m1 = 0.0491 | 0.379 | – | –
298.15 K, m1 = 0.0513 | 0.395 | – | –
298.15 K, m1 = 0.05137 | – | 998.909 | 1504
298.15 K, m1 = 0.0536 | 0.413 | – | –
298.15 K, m1 = 0.0562 | 0.432 | – | –
298.15 K, m1 = 0.0575 | 0.441 | – | –
298.15 K, m1 = 0.059 | 0.45 | – | –
298.15 K, m1 = 0.0605 | 0.462 | – | –
298.15 K, m1 = 0.06162 | – | 999.277 | 1505.7
298.15 K, m1 = 0.0621 | 0.472 | – | –
298.15 K, m1 = 0.0637 | 0.485 | – | –
298.15 K, m1 = 0.0655 | 0.498 | – | –
298.15 K, m1 = 0.0674 | 0.513 | – | –
298.15 K, m1 = 0.0694 | 0.528 | – | –
298.15 K, m1 = 0.0715 | 0.54 | – | –
298.15 K, m1 = 0.0737 | 0.557 | – | –
298.15 K, m1 = 0.0761 | 0.575 | – | –
298.15 K, m1 = 0.0786 | 0.595 | – | –
298.15 K, m1 = 0.0813 | 0.615 | – | –
298.15 K, m1 = 0.08198 | – | 1000 | 1509
298.15 K, m1 = 0.0842 | 0.636 | – | –
298.15 K, m1 = 0.0874 | 0.658 | – | –
298.15 K, m1 = 0.0907 | 0.682 | – | –
298.15 K, m1 = 0.0943 | 0.708 | – | –
298.15 K, m1 = 0.0983 | 0.735 | – | –
298.15 K, m1 = 0.1024 | – | 1000.72 | 1511.6
298.15 K, m1 = 0.1026 | 0.761 | – | –
298.15 K, m1 = 0.1072 | 0.787 | – | –
298.15 K, m1 = 0.1123 | 0.816 | – | –
298.15 K, m1 = 0.1179 | 0.847 | – | –
298.15 K, m1 = 0.1231 | – | 1001.43 | 1512.3
298.15 K, m1 = 0.1242 | 0.881 | – | –
298.15 K, m1 = 0.1311 | 0.92 | – | –
298.15 K, m1 = 0.1388 | 0.962 | – | –
298.15 K, m1 = 0.1436 | – | 1002.11 | 1513
298.15 K, m1 = 0.1474 | 1.01 | – | –
298.15 K, m1 = 0.1573 | 1.06 | – | –
298.15 K, m1 = 0.164 | – | 1002.79 | 1513.5
298.15 K, m1 = 0.1685 | 1.12 | – | –
298.15 K, m1 = 0.1815 | 1.19 | – | –
298.15 K, m1 = 0.1846 | – | 1003.47 | 1514
298.15 K, m1 = 0.1966 | 1.27 | – | –
298.15 K, m1 = 0.205 | – | 1004.13 | 1514.6
298.15 K, m1 = 0.2145 | 1.35 | – | –
308.15 K, m1 = 0.0308 | – | 995.089 | 1523
308.15 K, m1 = 0.0309 | 0.278 | – | –
308.15 K, m1 = 0.032 | 0.287 | – | –
308.15 K, m1 = 0.0333 | 0.299 | – | –
308.15 K, m1 = 0.0347 | 0.305 | – | –
308.15 K, m1 = 0.0362 | 0.32 | – | –
308.15 K, m1 = 0.0379 | 0.331 | – | –
308.15 K, m1 = 0.0397 | 0.344 | – | –
308.15 K, m1 = 0.04107 | – | 995.443 | 1524.2
308.15 K, m1 = 0.0417 | 0.359 | – | –
308.15 K, m1 = 0.0439 | 0.378 | – | –
308.15 K, m1 = 0.0463 | 0.396 | – | –
308.15 K, m1 = 0.049 | 0.415 | – | –
308.15 K, m1 = 0.05137 | – | 995.796 | 1525.5
308.15 K, m1 = 0.0521 | 0.437 | – | –
308.15 K, m1 = 0.0556 | 0.462 | – | –
308.15 K, m1 = 0.0596 | 0.493 | – | –
308.15 K, m1 = 0.06162 | – | 996.146 | 1526.8
308.15 K, m1 = 0.0642 | 0.531 | – | –
308.15 K, m1 = 0.0695 | 0.568 | – | –
308.15 K, m1 = 0.0719 | 0.585 | – | –
308.15 K, m1 = 0.0745 | 0.603 | – | –
308.15 K, m1 = 0.0772 | 0.624 | – | –
308.15 K, m1 = 0.0802 | 0.649 | – | –
308.15 K, m1 = 0.08198 | – | 996.836 | 1529
308.15 K, m1 = 0.0834 | 0.673 | – | –
308.15 K, m1 = 0.0869 | 0.698 | – | –
308.15 K, m1 = 0.0906 | 0.727 | – | –
308.15 K, m1 = 0.0947 | 0.756 | – | –
308.15 K, m1 = 0.0992 | 0.788 | – | –
308.15 K, m1 = 0.1024 | – | 997.517 | 1531.1
308.15 K, m1 = 0.1042 | 0.819 | – | –
308.15 K, m1 = 0.1097 | 0.851 | – | –
308.15 K, m1 = 0.1158 | 0.883 | – | –
308.15 K, m1 = 0.1225 | 0.919 | – | –
308.15 K, m1 = 0.1231 | – | 998.186 | 1531.7
308.15 K, m1 = 0.1302 | 0.965 | – | –
308.15 K, m1 = 0.1388 | 1.01 | – | –
308.15 K, m1 = 0.1436 | – | 998.836 | 1532.1
308.15 K, m1 = 0.1487 | 1.07 | – | –
308.15 K, m1 = 0.1602 | 1.13 | – | –
308.15 K, m1 = 0.164 | – | 999.479 | 1532.5
308.15 K, m1 = 0.1735 | 1.2 | – | –
308.15 K, m1 = 0.1846 | – | 1000.13 | 1533
308.15 K, m1 = 0.1892 | 1.29 | – | –
308.15 K, m1 = 0.205 | – | 1000.75 | 1533.6
308.15 K, m1 = 0.208 | 1.4 | – | –
